Experiment [1] has as its system Daphnia sp. The conditions noted are these: published value, same test method; Daphnia magna, Sewell & McKenzie (2005a); cited from earlier work.
The test system of experiment [2] is Daphnia sp. The settings on record: OECD Test No. 202 acute immobilisation. How it is done: The polyisobutylene substituted phenol described in Example 1 was tested for Acute Ecotox Value for Invertebrate using the OECD Guidelines for the Testing of Chemicals, Test No. 202 Daphnia sp. Acute Immobilisation Test (2004). Samples of alkyl-phenols having C4 and C8 alkyl groups were compared to the Sample of Example 1. A published test value for PDDP using the same test method is also included as a comparison.

Read-outs that look alike come from different tables or passages of the source.

These results are taken from patent publication US20210269734A1, “POLYISOBUTYLENE-SUBSTITUTED PHENOL, DERIVATIVES THEREOF, AND LUBRICATING COMPOSITIONS CONTAINING THE POLYISOBUTYLENE-SUBSTITUTED PHENOL AND ITS DERIVATIVES” (The Lubrizol Corporation, priority 2016, published 2021).

As for PDDP [Comparative Ex. 3], the “Acute Ecotox Value for Invertebrate daphnid (EC50)” value in the experiment with Daphnia sp. [1] is given as 0.037 mg/L. For the substance “350 Mn polyisobutylene-alkylated phenol [Example 1]”, the “Acute Ecotox Value for Invertebrate daphnid (EC50)” value with Daphnia sp. [2] is above 100 mg/L.
